Data published in PMC4626215, “Esculentin-2CHa-Related Peptides Modulate Islet Cell Function and Improve Glucose Tolerance in Mice with Diet-Induced Obesity and Insulin Resistance” (PLoS ONE, 2015).
Bridges are numbered along the chain shown (N, C = ends). Where no end group is shown, it is not given here.

Columns and labels:
[1] = system: BRIN-BD11 cells; assay: Membrane potential, FLIPR membrane assay kit; format: cell-based, rat; details: 1 μM peptide, 5 min; mean ± SEM, n = 8
Experimental: (§1) Effects of esculentin-2CHa (1 μM) and its analogues on membrane potential and [Ca^2+]i in BRIN-BD11 cells over a period of 5 min were assessed using commercially available FLIPR membrane or calcium assay kit (Molecular Devices, USA) as previously described. Data were captured using a Flexstation 3 microplate reader equipped with automatic fluid transfer unit (Molecular Devices, USA).

[2] = system: BRIN-BD11 cells; assay: Intracellular calcium ([Ca2+]i), FLIPR calcium assay kit; format: cell-based, rat; details: 1 μM peptide, 5 min; mean ± SEM, n = 8
Experimental: as §1

[3] = system: high fat fed mice; assay: Acute in vivo glucose tolerance and insulin release; set-up: species or system mouse
Experimental: (§2) Male National Institutes of Health (NIH) Swiss mice (Harlan Ltd, UK) were housed separately in an air-conditioned room (22 ± 2°C) with relative humidity of 51 ± 5% and a 12-hour light: 12-hour dark cycle and maintained on a high fat diet containing 45% fat, 20% protein and 35% carbohydrate (total energy 19.5 kJ/g, Dietex International Ltd, Witham, UK) for 120 days. Mice maintained on standard rodent diet containing 10% fat, 30% protein and 60% carbohydrates (total energy 12.99 kJ/g) were used as controls. Both groups of animals were allowed food and water ad libitum. All animal experiments were carried out in accordance with the UK Animals (Scientific Procedures) Act 1986 and EU Directive 2010/63EU for animal experiments. The study was approved by University of Ulster Research Ethics Committee.
For acute in vivo studies, overnight fasted, high fat fed mice (n = 8) received an intraperitoneal injection of glucose alone (18 mmol/kg body weight) or in combination with esculentin-2CHa or its analogues (75 nmol/kg body weight). This peptide dose was selected on the basis of a pilot study that examined acute effects of different doses of esculentin-2CHa on glucose tolerance in lean mice. Blood samples were collected as described previously before injection and at times indicated in the Figures for the measurement of plasma glucose and insulin concentrations.
(§3) Pancreatic tissues were homogenized in 20 mM Tris-HCl, 150 mM NaCl, 1 mM EDTA, 1 mM EGTA and 0.5% Triton X 100; pH 7.5 as previously described. Blood samples (approximately 150 μl), collected from the cut tip of the tail vein of unanesthetized mice at intervals indicated in the Figures were used for blood glucose measurements and determination of plasma insulin as previously described. Blood glucose was measured using a hand-held Ascencia Contour meter (Bayer Healthcare, UK). Plasma and pancreatic insulin were determined by radioimmunoassay. Plasma and pancreatic glucagon contents were determined by ELISA using commercially available kit (Millipore, MA, USA). Plasma creatinine, alanine transaminase (ALT), aspartic acid transaminase (AST) and alkaline phosphatase (ALP) were measured using commercially available kits (Randox Laboratories, UK) as indicators of renal and liver function. Plasma triglyceride and cholesterol concentrations were measured using an automated clinical chemistry analyser (I-lab 650, and reagents purchased from Instrumentation Laboratory (Warrington, UK). The assay kit for cholesterol was obtained from Randox Laboratories (Antrim, UK). Estimation of LDL cholesterol concentrations was achieved using the Friedewald equation as described previously.

[4] = system: islets from NIH Swiss mice; assay: In vitro insulin release from isolated mouse islets; format: cell-based; details: 16.7 mM glucose
Experimental: (§4) In vitro insulin-releasing effects of esculentin-2CHa and its analogues were assessed using BRIN-BD11 rat clonal β-cells and mouse islets. In the first set of experiments, BRIN-BD11 cells were incubated with the peptides in the concentration range (1 pM– 3 μM) in Krebs-Ringer bicarbonate buffer containing 5.6 mM glucose for 20 min at 37°C as previously described [15–17]. Insulin-releasing effects were also assessed using buffer supplemented with 1.4 and 16.7mm glucose concentrations and with established modulators of insulin release as previously described [15–17]. In a second set of experiments, islets from NIH Swiss mice, isolated by collagenase digestion [18, 19], were incubated with a range of concentrations of esculentin-2CHa or its analogues (0.1 nM– 1 μM) for 1 h in Krebs-Ringer bicarbonate (KRB) buffer supplemented with 1.4, 5.6 or 16.7 mM glucose. Following test incubations, aliquots of buffer were retrieved and stored at -20°C for measurement of insulin by radioimmunoassay [20].

[5] = system: high fat fed mice; assay: Longer-term (28 day) in vivo study; set-up: species or system mouse; Reduction of pancreatic glucagon / Reduction of plasma glucagon / Reduction of total islet area / Reduction of beta cell area / Reduction of alpha cell area: concentration or dose not given beside the values
Experimental: as §2
High-fat fed mice with clearly manifested features of obesity and hyperglycaemia received twice daily injections of either saline vehicle (0.9% (w/v) (high fat fed controls) or [L28K]esculentin-2CHa (75 nmol/kg body weight) for 28 days. This peptide was chosen based on its potent in vitro and acute in vivo actions. Mice (n = 8) fed standard rodent diet and injected with saline were used as lean controls. Energy intake, bodyweight, non-fasting blood glucose and plasma insulin concentrations were monitored every 72 h throughout the duration of the study. At the end of the 28 day treatment period, glucose tolerance (18 mmol/kg body weight, intraperitoneal or oral, overnight fasted) and insulin sensitivity (25 U/kg body weight) were assessed as previously described. Indirect calorimetry and energy expenditure in treated and control mice were measured using the Comprehensive Laboratory Animal Monitoring System (CLAMS) metabolic chambers (Columbus Instruments, Columbus, OH, USA). Total body lean and fat mass, bone mineral density and bone mineral content were also measured using DXA scanning (Piximus Densitometer, USA). Improvement in beta cell function in [L28K]esculentin-2CHa-treated and control mice were evaluated from the insulin secretory responses of islets isolated from these animals to established insulin secretagogues and incretin hormones (16.7 mM glucose, 1 μM GLP-1, 1 μM GIP, 10 mM alanine, 10 mM arginine and 30 mM KCl). Changes in islet morphology were assessed using pancreatic tissues excised from mice treated with [L28K]esculentin-2CHa or saline for 28 days as previously described.
as §3

[6] = system: BRIN-BD11 rat clonal β-cells; assay: In vitro insulin release from BRIN-BD11 cells; format: cell-based; details: 5.6 mM glucose
Experimental: as §4

[7] = system: BRIN-BD11 cells; details: 3 μM peptide (highest concentration); mean ± SEM, n = 8
Experimental: In vitro insulin-releasing effects of esculentin-2CHa and its analogues were assessed using BRIN-BD11 rat clonal β-cells and mouse islets. In the first set of experiments, BRIN-BD11 cells were incubated with the peptides in the concentration range (1 pM– 3 μM) in Krebs-Ringer bicarbonate buffer containing 5.6 mM glucose for 20 min at 37°C as previously described. Insulin-releasing effects were also assessed using buffer supplemented with 1.4 and 16.7mm glucose concentrations and with established modulators of insulin release as previously described. In a second set of experiments, islets from NIH Swiss mice, isolated by collagenase digestion, were incubated with a range of concentrations of esculentin-2CHa or its analogues (0.1 nM– 1 μM) for 1 h in Krebs-Ringer bicarbonate (KRB) buffer supplemented with 1.4, 5.6 or 16.7 mM glucose. Following test incubations, aliquots of buffer were retrieved and stored at -20°C for measurement of insulin by radioimmunoassay. In the experiments with BRIN-BD11 cells, the release of lactate dehydrogenase (LDH) was measured as an indicator of the integrity of the plasma membrane using commercially available CytoTox 96 non-radioactive cytotoxicity assay kit (Promega, Madison, WI, USA) according to the manufacturer’s recommended protocol.

[8] = ip glucose 18 mmol/kg with peptide 75 nmol/kg, AUC 0-60 min, mean ± SEM, n = 8
[9] = peptide 75 nmol/kg ip with glucose 18 mmol/kg
[10] = 75 nmol/kg twice daily, 28 days
[11] = after 28 days treatment, ip glucose 18 mmol/kg
[12] = after 28 days treatment, oral glucose 18 mmol/kg

## GFSSIFRGVAKFASKGLGKDLAKLGVDKVACKISKQC (disulfide 31-37 (inferred)) [[L28K]Esculentin-2CHa, substituted analogue of esculentin-2CHa chosen for 28 day study]
[1]
  Membrane potential (AUC, x 10^3 RFU): 7.78±0.22 x 10^3 RFU
[2]
  Intracellular Ca2+ (AUC, x 10^2 RFU): 7.28±0.94 x 10^2 RFU
[3]; [8]
  Plasma glucose (AUC): 327.61±36.87 ^, Δ mmol/l.min
  Plasma insulin (AUC): 262.81±30.56 ^,ΔΔΔ ng/ml.min
[3]; [9]
  Decrease of plasma glucose AUC versus glucose alone: 52%
  Stimulation of insulin response relative to that with esculentin-2CHa: 2.8 fold
[4]; 1 μM, 1 h
  Stimulation of insulin release from islets, fold of basal: 3.4 fold
[4]; insulin release, 1 h incubation, n = 8
  Mouse islets (Threshold concentration): 1 nM
[5]; [10]
  Body weight: did not affect
  Food intake: did not affect
  Increase in non-fasting plasma insulin versus saline-treated controls: 42%
  Reduction in non-fasting plasma glucose versus saline-treated controls: 25%
[5]; 28 days treatment
  Adverse effects: no adverse effects were observed
  Decrease in plasma creatinine: 40%
  Number of islets per mm^2 of pancreas: did not affect
  Plasma HDL cholesterol: no effect
  Plasma triglycerides: decreased
  Reduction of alpha cell area: 48%
  Reduction of beta cell area: 43%
  Reduction of total islet area: 44%
  Total pancreatic insulin content (greater in high fat fed mice): reversed
[5]; 28 days treatment, CLAMS metabolic chambers
  O2 consumption, CO2 production, energy expenditure and respiratory exchange ratio: not affected
[5]; 28 days treatment, DXA
  Bone area: reversed the loss
[5]; 28 days treatment, ELISA
  Reduction of pancreatic glucagon: 20%
  Reduction of plasma glucagon: 35%
[5]; after 28 days treatment, insulin 25 U/kg ip
  Insulin sensitivity: no significant effect
[5]; [11]
  Improvement of glucose AUC 0–60 min, intraperitoneal glucose tolerance: 20%
  Improvement of insulin AUC 0–60 min, intraperitoneal glucose: 66%
[5]; [12]
  Improvement of glycaemic excursion following oral glucose: 23%
  Improvement of insulin response following oral glucose: 68%
[5]; islets from mice treated 28 days, glucose, GLP-1, GIP, alanine, arginine, KCl
  Insulin-secretory responses of isolated islets to secretagogues: restored
[6]; 3 μM
  Stimulatory effect on insulin release at 3 μM compared with native peptide: greater
[6]; minimum concentration producing a significant increase in rate of insulin release, 20 min, 37°C, n = 8
  BRIN-BD11 cells (Threshold concentration): 10 pM
[7]
  LDH release (% of control): 101.8±1.5 % of control
